In experiment [1] the test system is eyelid closure (ptosis). The experiment can be described thus: Ptosis, mouse. The format is in vivo. The note with it: po, read-out: Ptosis MED.
Experiment [2] has as its system fear / feeding in approach-avoidance conflict. The experiment can be described thus: Rat Conflict (Approach-Avoidance) Test. The format is in vivo. The note with it: po, read-out: Conflict MED. As for the experimental part: Rat Conflict (Approach-Avoidance) Test (Conflict)
Results given in: mg/kg po/rat
Food deprived rats are trained to pass from one compartment to an adjacent one to obtain food. The training consists of 3 exposures to the test situation on day one of the experiment. The rats are given limited (1-2 hr) free access to food in their home cages on day one and are then food deprived for at least 18 hours. On day two of the experiment, the rats are given a control exposure to the test situation followed by a second exposure after one-half to 1 hour in which they are shocked after crossing and eating. Groups of 6-8 rats are then dosed orally with solvent or test compound and then re-exposed to the test situation after 1 or 2 hours.
Compounds showing minor tranquilizer (anxiolytic) activity in man such as diazepam and meprobamate produce an apparent decreased fear in the test animals so that they cross to obtain food despite having received a shock earlier. This effect is dose-related (and the MED is the minimum dose at which this effect is obtained); rats dosed with solvent only consistently show a high level of fear as evidenced by decreased mobility and absence of feeding when placed in the test situation after receiving a shock.

Experiment [3] relates to catalepsy. The experiment can be described thus: Catalepsy, mouse. The format is in vivo. The note with it: po, read-out: Catalepsy MED. The source says: (§1) The ability of an animal to remain in an abnormal position is used as another indication of central nervous system depressant activity. A test animal is removed from its observation cage and positioned so that its hind legs are on the table top and its front legs rest on the side of the observation cage. If an animal maintains this position for at least 10 seconds, it is considered to be showing cataleptic behavior.

Experiment [4] deals with eyelid closure (ptosis). Briefly: Ptosis, rat. The format is in vivo. The note with it: po, read-out: Ptosis MED. The source says:
Degree of eyelid closure is used as a measure of central nervous system depression. An animal is removed from its observation cage and allowed to remain outside the cage for 30 seconds. At the end of this time a rating of degree of eyelid closure is made on an arbitrary scale.

The subject of experiment [5] is conditioned avoidance response. Briefly: Conditioned Avoidance Response (C.A.R.), mouse. The format is in vivo. The settings on record: po, read-out: C.A.R. ED50. As for the experimental part:
(§2) Mouse and Rat Conditioned Avoidance Response (C.A.R.):
(§3) Mice and rats are trained to jump out of a pit onto a ledge to avoid shock when presented with a light and sound conditioned stimulus. The animals are tested 1, 2, and 4 hours after administration of the test compound. Three to four dose levels and groups of 4-8 animals/dose are used. The ED50 is the dose producing a block of the C.A.R. in 50% of the animals. Blocking of the C.A.R. at non-toxic doses appears to correlate with major tranquilizer activity in man.

The subject of experiment [6] is catalepsy. The experiment can be described thus: Catalepsy, rat. The format is in vivo. The note with it: po, read-out: Catalepsy MED.
Excerpt: as §1

Experiment [7] deals with phenyl-p-benzoquinone-induced writhing. Briefly: Phenylquinone Writhing (P.Q.W.). The format is in vivo, mouse. The note with it: 0.5 h; mouse, po; phenyl-p-benzoquinone 2.5 mg/kg i.p. 30 minutes after compound; read-out: P.Q.W. ED50. In general terms: An intraperitoneal irritant provokes the stretching counted in writhing tests.
For experiment [8], the system named is TBZ-induced ptosis. Briefly: Tetrabenazine Antagonism (T.B.Z.A.), mouse. The format is in vivo. The settings on record: 1 h, po, read-out: T.B.Z.A. ED50. As for the experimental part:
(§4) Tetrabenazine Antagonism (T.B.Z.A.)
(§5) The tetrabenazine (TBZ) antagonism test is used to test for potential antidepressant-like activity in rodents. One hour after oral administration of a test compound, a 40 mg/kg dose of TBZ is given subcutaneously. Thirty minutes after TBZ administration, the mice are placed in the center of a circle; the diameter of the circle is twice the body length of the mouse or rat. After 30 seconds, a reading is made of the degree of ptosis and whether the animal has moved out of the circle. Animals that have received only TBZ will show marked ptosis and immobility. Tricyclic antidepressants of the imipramine type will antagonize the ptosis but not the immobility. Antidepressants of the amphetamine or monoamine oxidase inhibitory type will antagonize both the ptosis and immobility induced by TBZ. The ED50 is the dose producing antagonism of TBZ-induced ptosis, but not of TBZ-induced immobility, in 50% of the animals.

Experiment [9] deals with conditioned avoidance response. The experiment can be described thus: Conditioned Avoidance Response (C.A.R.), rat. The format is in vivo. The note with it: po, read-out: C.A.R. ED50. How it is done:
as §2, §3

Experiment [10] relates to conditioned avoidance response. Briefly: Dog Conditioned Avoidance Response (C.A.R.). The format is in vivo. The settings on record: Canis lupus familiaris, po, read-out: C.A.R. ED50. How it is done: Dog Conditioned Avoidance Response (C.A.R.):
Results given in: mg/kg po/dog
Dogs are trained to raise a forelimb when presented with a conditioned stimulus (light) in order to avoid an electric shock. Blocks of 10 trials are given to groups of 4 dogs during a pretreatment period and at 1, 2, and 4 hours after oral administration of the test compound. The ED50 values are calculated as the dose causing 50% of the animals to show 5 or more incorrect responses. Blocking of the C.A.R. at non-toxic doses appears to correlate with major tranquilizer activity in man.

The subject of experiment [11] is taming. The experiment can be described thus: Rhesus Monkey Taming Effects. The format is in vivo. The settings on record: Macaca mulatta, po, read-out: Taming MED. As for the experimental part:
Rhesus Monkey Taming Effects (Taming):
Results given in: mg/kg po/monkey
Compounds are administered orally to groups of 6 rhesus monkeys. The behavior of the animals is then evaluated by observational means. Taming effects are determined by the ability of the observer to approach and touch the monkey. Compounds with major tranquilizer activity in man can produce a state of passive tameness in the rhesus monkey wherein it can be touched without provoking any of the threatening or aggressive behavior seen in the normal animal. The MED is the minimal oral dose at which some taming effect can be observed.

Experiment [12] deals with TBZ-induced ptosis. The experiment can be described thus: Tetrabenazine Antagonism (T.B.Z.A.), rat. The format is in vivo. The note with it: 1 h, po, read-out: T.B.Z.A. ED50. How it is done: as §4, §5
In experiment [13] the test system is locomotor activity. The experiment can be described thus: Decreased Locomotor Activity (L.M.A.), mouse. The note with it: po, read-out: L.M.A. MED. The format is in vivo. How it is done: (§6) Decreased Locomotor Activity (L.M.A.)
(§7) This reaction sign is measured subjectively by observing how an animal behaves when it is removed from an observation cage and placed on a table top. […] The degree of stimulation by the observer needed to produce active locomotion is rated on an arbitrary scale. This ranges from a score of -1 where only a slight touch of the animal's body is required to a -4 where the animal is unresponsive or minimally responsive to the application of a pain stimulus (pressure at the base of the tail). The minimal effective dose (MED) is the lowest oral dose producting an obvious decrease of locomotor activity (with a score of at least -1). Groups of 3 mice are given decreasing oral doses at 0.5 log intervals (300, 100, 30. . .etc.) until no behavioral effects are evident. Decrease of locomotor activity is indicative of general central nervous system depressant activity.

Experiment [14] concerns locomotor activity. The experiment can be described thus: Decreased Locomotor Activity (L.M.A.), rat. The format is in vivo. The note with it: po, read-out: L.M.A. MED. As for the experimental part: as §6, §7
Experiment [15] relates to locomotor activity. Briefly: LMA, comparison with chlorpromazine. The format is in vivo. The settings on record: read-out: LMA (*ED50?).
The test system of experiment [16] is eyelid closure (ptosis). The experiment can be described thus: Ptosis, comparison with chlorpromazine. The note with it: read-out: Ptosis (*ED50?). The format is in vivo.
Experiment [17] concerns catalepsy. The experiment can be described thus: Catalepsy, comparison with chlorpromazine. The format is in vivo. The settings on record: read-out: Catalepsy (*ED50?).
Where [18] appears, read: mouse, block of C.A.R. in 50% of animals, 1, 2, and 4 hours.
Where [19] appears, read: mouse, TBZ 40 mg/kg s.c. one hour after compound.
[20] abbreviates: rat, block of C.A.R. in 50% of animals, 1, 2, and 4 hours.
[21] abbreviates: dog, 5 or more incorrect responses in 50% of animals, 1, 2, and 4 hours.
Where [22] appears, read: rat, TBZ 40 mg/kg s.c. one hour after compound.

Like-named read-outs stand apart in the source and are kept apart here.

For five compounds, minimal effective dose and ED50 results are on record in patent US3932650A, “Trans-octahydropyridoindolobenzazepines as central nervous system depressants” (E. I. Du Pont de Nemours & Company, priority 1973, dated 1976).

As a reminder, the ED50 is the dose that gives a 50% effect, or the effect in half of the subjects. `c1ccc2c(c1)CCc1cccc3c1N2[C@@H]1CCN(CC2CC2)C[C@@H]31` (relative stereo) [Example 2, trans-3-(Cyclopropylmethyl)-1,2,3,4,4a,8,9,14a-octahydropyrido[4',3':2,3]indolo[1,7-ab][1]benzazepine]: the minimal effective dose in [1] (mouse, passive ptosis) was 10 mg/kg; in experiment [2] (rat, after 1 or 2 hours) it was above 40 mg/kg; in experiment [3] (mouse) it was 3 mg/kg; in experiment [4] (rat, passive ptosis) it was 3 mg/kg; in experiment [6] (rat), 3 mg/kg; in [11] (rhesus monkey), 1 mg/kg. In addition, the minimal effective dose in experiment [13] (mouse, minimal effective dose) stood at 3 mg/kg; in experiment [14] (minimal effective dose) it was 1 mg/kg. The ED50 is 0.7 mg/kg in [5] (setting [18]); 2.3 mg/kg in experiment [7]; above 100 mg/kg in experiment [8] (setting [19]); 0.7 mg/kg in experiment [9] (setting [20]); 3 mg/kg in experiment [10] (setting [21]); above 100 mg/kg in [12] (setting [22]).

In the case of `CN(C)CCCN1c2ccccc2Sc2ccc(Cl)cc21` [Chlorpromazine], the ED50 in experiment [15] is 5 mg/kg; in [16], 6 mg/kg; in experiment [17], 6 mg/kg.

Take `CC(C)CN1CC[C@@H]2[C@@H](C1)c1cccc3c1N2c1ccccc1CC3` (relative stereo) [Example 5, trans-1,2,3,4,4a,8,9,14a-Octahydro-3-isobutylpyrido[4',3':2,3]indolo[1,7-ab][1]benzazepine]: the minimal effective dose in experiment [1] (mouse, passive ptosis) was 8 mg/kg; in [3] (mouse), 2 mg/kg; in [4] (rat, passive ptosis), 5 mg/kg; in [6] (rat), 6 mg/kg; in [13] (mouse, minimal effective dose), 2 mg/kg; in experiment [14] (minimal effective dose), 4 mg/kg. Further, the median effective dose (ED50) in experiment [15] (species not given) is 4 mg/kg; in experiment [16] (species not given) it was 5 mg/kg; in [7] it was 1.75 mg/kg; in experiment [17] (species not given), 6 mg/kg.

As to `CN1CC[C@H]2[C@@H](C1)c1cccc3c1N2c1ccccc1CC3` (relative stereo) [methyl octahydro cis], the minimal effective dose in experiment [1] (Mus musculus) was above 300 mg/kg; in [2] (Rattus norvegicus) it was above 40 mg/kg; in experiment [3] (Mus musculus), above 300 mg/kg; in experiment [4] (Rattus norvegicus) it was above 300 mg/kg; in experiment [6] (Rattus norvegicus), above 300 mg/kg; in experiment [11] it was above 20 mg/kg. In addition, the minimal effective dose in experiment [13] (Mus musculus) and in experiment [14] was 30 mg/kg each time. Further, the ED50 in experiment [5] (Mus musculus, 4 h) was above 40 mg/kg; in experiment [8] (Mus musculus), 15 mg/kg; in experiment [9] (Rattus norvegicus, 4 h), above 40 mg/kg; in experiment [10] (4 h), above 30 mg/kg; in experiment [12] (Rattus norvegicus) it was 7.4 mg/kg.

In the case of `c1ccc2c(c1)CCc1cccc3c4c(n-2c13)CCN(CC1CC1)C4` [(cyclopropylmethyl) hexahydro, 3-(cyclopropylmethyl)-1,2,3,4,8,9-hexahydropyrido[4',3':2,3]indolo[1,7-ab][1]benzazepine], the minimal effective dose is 30 mg/kg in experiment [1] (mouse, passive ptosis); 10 mg/kg in experiment [2] (rat, after 1 or 2 hours); 30 mg/kg in experiment [3] (mouse); 30 mg/kg in [4] (rat, passive ptosis); 30 mg/kg in [6] (rat); 3 mg/kg in experiment [11] (rhesus monkey). For the same compound, the minimal effective dose turned out to be 10 mg/kg in experiment [13] (mouse, minimal effective dose) and 10 mg/kg in experiment [14] (minimal effective dose). Besides, the ED50 in experiment [5] (setting [18]) was 20 mg/kg; in experiment [8] (setting [19]), above 100 mg/kg; in experiment [9] (setting [20]) it was 40 mg/kg; in experiment [10] (setting [21]), above 30 mg/kg; in experiment [12] (setting [22]) it was above 100 mg/kg.
